This note sets out measurements from ChEMBL document CHEMBL1155401, “The development of benzimidazoles as selective rho kinase inhibitors” (Bioorg Med Chem Lett, 2010).

Data set [1] is described as follows: Inhibition of ROCK by enzyme-coupled luciferase-kinase assay.
Data set [2] is described as follows: Inhibition of PKA.
Data set [3] can be described thus: Selectivity ratio of IC50 for PKA to IC50 to ROCK.
A further data set concerns the target Cytochrome P450 2C9 (Homo sapiens, UniProt P11712). In words: Inhibition of CYP2C9. The format is ADME.
A further data set has as its target Cytochrome P450 2D6 (Homo sapiens, UniProt P10635). In words: Inhibition of CYP2D6. The format is ADME.
A further data set has as its target Cytochrome P450 3A4 (Homo sapiens, UniProt P08684). In words: Inhibition of CYP3A4. The data set is classed as ADME.
Another data set has as its target T1, Cytochrome P450 1A2 (Homo sapiens, UniProt P05177).
T1 sequence (P05177 whole entry): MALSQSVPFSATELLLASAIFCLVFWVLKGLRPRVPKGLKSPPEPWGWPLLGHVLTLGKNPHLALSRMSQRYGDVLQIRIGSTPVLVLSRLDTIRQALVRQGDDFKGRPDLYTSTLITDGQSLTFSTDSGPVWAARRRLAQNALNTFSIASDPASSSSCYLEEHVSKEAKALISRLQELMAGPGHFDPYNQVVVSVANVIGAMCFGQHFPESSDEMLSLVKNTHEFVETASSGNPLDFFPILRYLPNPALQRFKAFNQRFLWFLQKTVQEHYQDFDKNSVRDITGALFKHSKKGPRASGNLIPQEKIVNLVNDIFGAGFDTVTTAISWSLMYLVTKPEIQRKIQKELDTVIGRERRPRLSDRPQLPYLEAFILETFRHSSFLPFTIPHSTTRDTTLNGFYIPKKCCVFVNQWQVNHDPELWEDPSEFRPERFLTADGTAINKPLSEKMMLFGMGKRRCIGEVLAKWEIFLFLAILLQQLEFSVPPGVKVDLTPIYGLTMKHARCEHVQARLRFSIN
In words: Inhibition of CYP1A2. The format is ADME.

The next data set deals with Rattus norvegicus. In words: AUC in rat at 2 mg/kg, po. The format is ADME, organism-based, Plasma. Also noted: dose 2 mg/kg, route oral. As to conditions: in vivo; call rule not given here.
The nature of data set [4]: Inhibition of ROCK by myosin light chain phosphorylation assay.

The structures appear in SMILES notation. Some results are limits rather than exact numbers.

Cytochrome P450 2C9, sequence (P11712 whole entry): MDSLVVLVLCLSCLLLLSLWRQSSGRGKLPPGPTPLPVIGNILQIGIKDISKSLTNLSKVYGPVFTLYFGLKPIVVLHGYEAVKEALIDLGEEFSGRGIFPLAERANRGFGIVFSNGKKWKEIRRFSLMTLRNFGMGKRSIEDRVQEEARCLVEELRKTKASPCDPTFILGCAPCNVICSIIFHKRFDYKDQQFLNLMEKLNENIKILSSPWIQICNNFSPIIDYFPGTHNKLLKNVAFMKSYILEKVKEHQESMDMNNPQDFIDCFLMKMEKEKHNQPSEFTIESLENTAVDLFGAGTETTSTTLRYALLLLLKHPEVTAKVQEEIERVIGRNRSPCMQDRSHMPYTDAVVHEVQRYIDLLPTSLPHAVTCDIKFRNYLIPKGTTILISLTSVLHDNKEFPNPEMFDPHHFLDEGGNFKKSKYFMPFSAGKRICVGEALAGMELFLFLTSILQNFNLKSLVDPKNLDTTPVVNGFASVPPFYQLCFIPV
Cytochrome P450 2D6, sequence (P10635 whole entry): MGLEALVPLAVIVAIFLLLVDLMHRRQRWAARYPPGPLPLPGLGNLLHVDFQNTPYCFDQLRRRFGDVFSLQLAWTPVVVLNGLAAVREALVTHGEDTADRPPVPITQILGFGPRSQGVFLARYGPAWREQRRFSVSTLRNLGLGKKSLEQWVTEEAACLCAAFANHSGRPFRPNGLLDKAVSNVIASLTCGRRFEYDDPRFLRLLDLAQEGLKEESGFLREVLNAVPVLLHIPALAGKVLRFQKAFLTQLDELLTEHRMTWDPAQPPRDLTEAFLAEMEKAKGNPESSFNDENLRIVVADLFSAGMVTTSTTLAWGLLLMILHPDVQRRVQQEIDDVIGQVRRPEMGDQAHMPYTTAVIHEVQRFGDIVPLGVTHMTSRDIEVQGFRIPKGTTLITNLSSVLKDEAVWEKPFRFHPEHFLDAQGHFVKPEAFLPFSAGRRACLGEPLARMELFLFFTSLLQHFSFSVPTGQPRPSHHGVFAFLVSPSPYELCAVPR
Cytochrome P450 3A4, sequence (P08684 whole entry): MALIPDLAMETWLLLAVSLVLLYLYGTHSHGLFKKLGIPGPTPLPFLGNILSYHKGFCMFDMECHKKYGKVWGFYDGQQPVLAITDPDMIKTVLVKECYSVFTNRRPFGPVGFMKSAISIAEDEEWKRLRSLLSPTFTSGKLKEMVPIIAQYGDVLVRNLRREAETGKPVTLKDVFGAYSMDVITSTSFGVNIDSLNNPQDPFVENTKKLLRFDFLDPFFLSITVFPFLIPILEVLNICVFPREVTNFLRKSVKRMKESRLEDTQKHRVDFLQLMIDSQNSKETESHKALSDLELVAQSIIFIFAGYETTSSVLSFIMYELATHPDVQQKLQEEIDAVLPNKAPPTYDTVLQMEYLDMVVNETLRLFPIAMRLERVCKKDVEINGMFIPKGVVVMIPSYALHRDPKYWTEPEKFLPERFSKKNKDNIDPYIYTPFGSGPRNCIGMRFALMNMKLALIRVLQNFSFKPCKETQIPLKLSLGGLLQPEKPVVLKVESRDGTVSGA

Turning to `FC(F)(F)c1cc2nc(C3COc4ccccc4O3)[nH]c2cc1-c1ccncc1` (configuration not stated), the figures for the IC50 in data set [1] and in data set [2] were 2970 nM and 3080 nM, respectively. Moreover, in [3], the Ratio IC50 was 1. The outcome at Cytochrome P450 2C9, on Cytochrome P450 2D6, at Cytochrome P450 3A4 and on Cytochrome P450 1A2 was Active.
Consider `Nc1nccc(-c2ccc3nc(C4COc5ccc(C(=O)NCCc6ccccn6)cc5C4)[nH]c3c2)n1` (configuration not stated), for which the IC50 in [1] is 0.43 nM; in data set [2], 305 nM. Moreover, the Ratio IC50 in [3] stood at 709.
As to `COc1cccc2c1CC(c1nc3ccc(-c4ccnc(N)n4)cc3[nH]1)CO2` (configuration not stated), the concentration for half-maximal inhibition (IC50) in data set [1] came out at 25 nM; in data set [2], 310 nM. The Ratio IC50 in data set [3] was 12.
Consider `Cn1c(C2COc3ccccc3O2)nc2cc(-c3ccncc3)ccc21` (configuration not stated), for which the IC50 in [1] amounted to 1780 nM; in [2], 3130 nM. Also, in data set [3], the Ratio IC50 was 2. For the same compound, the result at Cytochrome P450 2C9, on Cytochrome P450 2D6, on Cytochrome P450 3A4 and on Cytochrome P450 1A2 was Active.
`COc1ccc2c(c1)CC(c1nc3c(OCCN(C)C)cc(-c4ccncc4)cc3[nH]1)CO2` (configuration not stated): the values for the IC50 in data set [1] and in data set [2] were 440 nM and greater than 20000 nM, respectively. Also, in [3], the Ratio IC50 is greater than 45. Moreover, the outcome at Cytochrome P450 2C9, on Cytochrome P450 2D6, at Cytochrome P450 3A4 and at Cytochrome P450 1A2 was Active.
Consider `CN(C)C(=O)c1ccc2c(c1)CC(c1nc3ccc(-c4ccnc(N)n4)cc3[nH]1)CO2` (configuration not stated), for which the IC50 in data set [1] turned out to be 129 nM; in [2], 1730 nM. Further, the Ratio IC50 in data set [3] worked out at 13.
For `c1ccc2c(c1)OCC(c1nc3ccc(-c4ccncc4)cc3n1C1CCOCC1)O2` (configuration not stated), the IC50 in [1] worked out at 27 nM; in [2] it was 509 nM. Besides, the Ratio IC50 in data set [3] is 19. For the same compound, the outcome at Cytochrome P450 2C9, on Cytochrome P450 2D6, at Cytochrome P450 3A4 and on Cytochrome P450 1A2 was Active.
`COCCn1c(C2COc3ccccc3O2)nc2ccc(-c3ccncc3)cc21` (configuration not stated): the IC50 in [1] is 11 nM; in data set [2], 310 nM. The Ratio IC50 in data set [3] was 28. For the same compound, the result at Cytochrome P450 2C9, on Cytochrome P450 2D6, at Cytochrome P450 3A4 and on Cytochrome P450 1A2 was Active.
For `COc1ccc2c(c1)CC(c1nc3c(OCCCO)cc(-c4ccncc4)cc3[nH]1)CO2` (configuration not stated), the IC50 in data set [1] stood at 183 nM; in data set [2] it was 1590 nM. In addition, in data set [3], the Ratio IC50 came out at 9. In addition, the result at Cytochrome P450 2C9, at Cytochrome P450 2D6, on Cytochrome P450 3A4 and at Cytochrome P450 1A2 was Active.
`Nc1nccc(-c2ccc3nc(C4COc5ccccc5C4)[nH]c3c2)n1` (configuration not stated): the IC50 was 8 nM in data set [1] and 195 nM in data set [2]. Also, the Ratio IC50 in data set [3] amounted to 24.
Consider `Cc1c(-c2ccncc2)cc2[nH]c(C3COc4ccccc4O3)nc2c1C` (configuration not stated), for which the IC50 in [1] and in [2] was greater than 20000 nM throughout. In addition, the result at Cytochrome P450 2C9, on Cytochrome P450 2D6, on Cytochrome P450 3A4 and at Cytochrome P450 1A2 was Active.
Take `Nc1nccc(-c2ccc3nc(C4COc5ccc(C(=O)NCCc6ccccc6)cc5C4)[nH]c3c2)n1` (configuration not stated): the figures for the IC50 in data set [1] and in [2] were 1.7 nM and 700 nM, respectively. Also, the Ratio IC50 in data set [3] is 412.
Take `COc1cccc2c1OCC(c1nc3ccc(-c4ccnc(N)n4)cc3[nH]1)C2` (configuration not stated): the IC50 in data set [1] came out at 256 nM; in data set [2], 232 nM. In addition, the Ratio IC50 in data set [3] turned out to be 0.9.
As to `COc1ccc2c(c1)OCC(c1nc3ccc(-c4ccnc(N)n4)cc3[nH]1)C2` (configuration not stated), the results for the IC50 in [1] and in data set [2] were 95 nM and 435 nM, respectively. In [3], the Ratio IC50 was 4.6.
On to `COc1ccc2c(c1)CC(c1nc3ccc(-c4ccnc(N)n4)cc3[nH]1)CO2` (configuration not stated), for which the IC50 in data set [1] was 1.7 nM; in data set [2] it was 485 nM; in [4], 85 nM. The Ratio IC50 in data set [3] worked out at 285. Moreover, the AUC with Rattus norvegicus came out at 1.9 µM·h.
`c1ccc(CCn2c(C3COc4ccccc4O3)nc3ccc(-c4ccncc4)cc32)cc1` (configuration not stated): the IC50 in data set [1] is 680 nM; in [2], 8810 nM. For the same compound, in [3], the Ratio IC50 came out at 13. Moreover, the result on Cytochrome P450 2C9, at Cytochrome P450 2D6, on Cytochrome P450 3A4 and at Cytochrome P450 1A2 was Active.
On to `c1ccc(Cn2c(C3COc4ccccc4O3)nc3ccc(-c4ccncc4)cc32)cc1` (configuration not stated), for which the IC50 in data set [1] worked out at 190 nM; in data set [2], 1000 nM. The Ratio IC50 in [3] stood at 5. For the same compound, the result on Cytochrome P450 2C9, on Cytochrome P450 2D6, on Cytochrome P450 3A4 and at Cytochrome P450 1A2 was Active.
For the compound `Cn1c(C2COc3ccccc3O2)nc2ccc(-c3ccncc3)cc21` (configuration not stated), the IC50 in [1] worked out at 15 nM; in data set [2] it was 1960 nM. The Ratio IC50 in data set [3] turned out to be 131. The result on Cytochrome P450 2C9, at Cytochrome P450 2D6, on Cytochrome P450 3A4 and on Cytochrome P450 1A2 was Active.
Consider `c1ccc2c(c1)CC(c1nc3ccc(-c4ccncc4)cc3[nH]1)CO2` (configuration not stated), for which the IC50 in data set [1] is 1.7 nM; in data set [2], 252 nM. In [3], the Ratio IC50 was 148. The result at Cytochrome P450 2C9, at Cytochrome P450 2D6, on Cytochrome P450 3A4 and at Cytochrome P450 1A2 was Active.
For the compound `Nc1nccc(-c2ccc3nc(C4COc5ccc(C(=O)NC6CCCCC6)cc5C4)[nH]c3c2)n1` (configuration not stated), the IC50 in [1] was 1.1 nM; in [2], 20 nM. In addition, the Ratio IC50 in data set [3] came to 18.
As for `c1ccc2c(c1)OCC(c1nc3ccc(-c4ccncc4)cc3[nH]1)O2` (configuration not stated), the IC50 is 7.5 nM in [1] and 355 nM in data set [2]. The Ratio IC50 in data set [3] stood at 47. For the same compound, the outcome at Cytochrome P450 2C9, on Cytochrome P450 2D6, on Cytochrome P450 3A4 and on Cytochrome P450 1A2 was Active.
For `c1ccc2c(c1)OCC(c1nc3ccc(-c4ccncc4)cc3n1CCN1CCOCC1)O2` (configuration not stated), the IC50 amounted to 130 nM in data set [1] and 6120 nM in data set [2]. Moreover, the Ratio IC50 in data set [3] was 47. The result on Cytochrome P450 2C9, at Cytochrome P450 2D6, at Cytochrome P450 3A4 and at Cytochrome P450 1A2 was Active.
Consider `COc1c(-c2ccncc2)ccc2nc(C3COc4ccccc4C3)[nH]c12` (configuration not stated), for which the IC50 in data set [1] came to 4.1 nM; in data set [2], 187 nM. Also, the Ratio IC50 in data set [3] stood at 46. For the same compound, the outcome on Cytochrome P450 2C9, on Cytochrome P450 2D6, at Cytochrome P450 3A4 and on Cytochrome P450 1A2 was Active.
For the compound `Cc1cc(-c2ccncc2)cc2[nH]c(C3COc4ccccc4O3)nc12` (configuration not stated), the values for the IC50 in [1] and in data set [2] were 240 nM and 1380 nM, respectively. Further, the Ratio IC50 in data set [3] turned out to be 6. Further, the outcome at Cytochrome P450 2C9, at Cytochrome P450 2D6, at Cytochrome P450 3A4 and at Cytochrome P450 1A2 was Active.
In the case of `CN(C)CCNC(=O)c1ccc2c(c1)CC(c1nc3ccc(-c4ccnc(N)n4)cc3[nH]1)CO2` (configuration not stated), the IC50 was found to be 1.5 nM in data set [1] and 328 nM in data set [2]. Further, the Ratio IC50 in data set [3] is 219.
With `c1ccc2c(c1)OCC(c1nc3ccc(-c4ccncc4)cc3n1CC1CC1)O2` (configuration not stated), the IC50 came to 24 nM in data set [1] and 850 nM in data set [2]. Besides, the Ratio IC50 in [3] stood at 35. Besides, the result at Cytochrome P450 2C9, at Cytochrome P450 2D6, on Cytochrome P450 3A4 and at Cytochrome P450 1A2 was Active.
As for `Nc1nccc(-c2ccc3nc(C4COc5ccc(C(=O)NCc6ccccc6)cc5C4)[nH]c3c2)n1` (configuration not stated), the IC50 in data set [1] is less than 1 nM; in [2] it was 78 nM. Further, the Ratio IC50 in data set [3] is 78.
On to `Nc1nccc(-c2ccc3nc(C4COc5ccc(C(=O)NCCO)cc5C4)[nH]c3c2)n1` (configuration not stated), for which the IC50 stood at 2.8 nM in data set [1] and 370 nM in data set [2]. Moreover, the Ratio IC50 in data set [3] worked out at 132.
`Nc1nccc(-c2ccc3nc(C4COc5ccc(C(=O)NCc6cccnc6)cc5C4)[nH]c3c2)n1` (configuration not stated): the IC50 in [1] is 0.78 nM; in [2] it was 82 nM. The Ratio IC50 in data set [3] stood at 105.
